Results on 27 compounds are retold here after patent US11884661B2, “3-substituted propionic acids as αV integrin inhibitors” (BRISTOL-MYERS SQUIBB COMPANY, priority 2016, dated 2024).

The assay deals with T1, human αVβ6 (Homo sapiens, UniProt P06756+P18564).
T1 construct: purchased R & D systems 3817-AV
T1 sequence (P06756 31-992 limits assumed): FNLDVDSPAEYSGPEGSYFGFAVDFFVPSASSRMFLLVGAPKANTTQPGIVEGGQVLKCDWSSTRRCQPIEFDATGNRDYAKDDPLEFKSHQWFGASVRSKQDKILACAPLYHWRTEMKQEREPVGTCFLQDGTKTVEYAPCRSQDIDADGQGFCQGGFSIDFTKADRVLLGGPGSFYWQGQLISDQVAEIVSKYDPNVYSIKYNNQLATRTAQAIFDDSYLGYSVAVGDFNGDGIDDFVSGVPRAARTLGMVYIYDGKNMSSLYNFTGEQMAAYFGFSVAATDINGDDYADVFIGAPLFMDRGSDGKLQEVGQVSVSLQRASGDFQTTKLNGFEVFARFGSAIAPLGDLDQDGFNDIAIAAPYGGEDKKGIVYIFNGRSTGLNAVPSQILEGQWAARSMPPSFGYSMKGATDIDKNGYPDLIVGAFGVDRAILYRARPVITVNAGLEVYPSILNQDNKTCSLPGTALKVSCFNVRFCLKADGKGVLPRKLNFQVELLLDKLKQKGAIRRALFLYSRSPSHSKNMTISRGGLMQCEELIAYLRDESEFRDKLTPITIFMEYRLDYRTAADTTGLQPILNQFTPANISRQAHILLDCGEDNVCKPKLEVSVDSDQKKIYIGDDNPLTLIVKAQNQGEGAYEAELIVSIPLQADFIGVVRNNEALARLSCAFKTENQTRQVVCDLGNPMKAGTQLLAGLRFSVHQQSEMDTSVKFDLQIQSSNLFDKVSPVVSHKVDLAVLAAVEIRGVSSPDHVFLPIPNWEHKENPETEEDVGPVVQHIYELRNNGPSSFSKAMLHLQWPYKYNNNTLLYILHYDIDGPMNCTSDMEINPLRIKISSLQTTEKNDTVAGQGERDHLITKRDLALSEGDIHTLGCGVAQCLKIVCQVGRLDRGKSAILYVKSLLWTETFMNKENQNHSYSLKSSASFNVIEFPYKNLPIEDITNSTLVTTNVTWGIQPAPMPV
T1 sequence (P18564 22-707 limits assumed): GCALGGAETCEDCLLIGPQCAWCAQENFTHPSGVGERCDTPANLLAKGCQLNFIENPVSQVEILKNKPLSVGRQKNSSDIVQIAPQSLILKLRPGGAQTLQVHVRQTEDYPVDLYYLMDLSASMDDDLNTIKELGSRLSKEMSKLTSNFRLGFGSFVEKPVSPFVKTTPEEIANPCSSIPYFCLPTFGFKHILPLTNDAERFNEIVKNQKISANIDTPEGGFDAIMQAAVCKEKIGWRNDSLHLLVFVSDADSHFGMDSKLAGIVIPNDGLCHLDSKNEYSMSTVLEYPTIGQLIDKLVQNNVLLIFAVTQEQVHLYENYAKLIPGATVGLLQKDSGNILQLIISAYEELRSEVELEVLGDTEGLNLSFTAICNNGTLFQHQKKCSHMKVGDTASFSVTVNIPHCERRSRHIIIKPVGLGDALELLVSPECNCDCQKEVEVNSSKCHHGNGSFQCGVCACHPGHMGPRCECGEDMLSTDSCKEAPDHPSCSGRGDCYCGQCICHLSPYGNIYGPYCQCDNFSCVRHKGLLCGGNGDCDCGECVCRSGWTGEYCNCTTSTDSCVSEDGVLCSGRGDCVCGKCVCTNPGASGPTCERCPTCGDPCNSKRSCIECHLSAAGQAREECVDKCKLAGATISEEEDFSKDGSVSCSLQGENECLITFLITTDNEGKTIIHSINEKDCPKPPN
In words: human αVβ6 HTRF binding assay. The settings on record: recombinant human αVβ6 integrin, FITC-conjugated fibronectin. On the procedure: All binding assays used the HTRF (homogeneous time resolved fluorescence) technology from Cisbio International, therefore all assays are described as HTRF binding assays. The assay results for the Examples are listed above together with the characterization data. The HTRF binding assays are established for the following integrins: human αVβ6, human αVβ1, human αVβ3, human αVβ5, and human αVβ8. All assays used the following assay buffer: 20 mM Tris, pH 7.4, 1 mM MgCl2, 1 mM MnCl2, 0.01% Tween 20, and 0.01% BSA. Alternatively, a SPA-based assay was used for evaluation of receptor binding.
The following describes the components and a representative procedure for the human αVβ6 HTRF binding assay: Recombinant human αVβ6 Integrin (R & D systems, 3817-AV) was biotinylated. Biotinylated human αVβ6 Integrin was added to assay vessel at a final concentration of 1.25 nM. FITC-conjugated fibronectin (Cytoskeleton, FNR02) was then added at the final concentration of 5 nM. The mixture was centrifuged at 600 rpm for three minutes using Thermo Fisher Heraeus Multifuge X3 centrifuge and then incubated at RT for an hour. Streptavidin Terbium (Cisbio international 610STLB) was then added at the final concentration of 0.625 nM. The resulting mixture was centrifuged at 600 rpm for three minutes using Thermo Fisher Heraeus Multifuge X3 centrifuge and then incubated at room temperature overnight in dark before reading HTRF signals.
Background: TR-FRET usually uses a lanthanide donor and a delayed reading to cut background.
The IC50 is the concentration needed to halve the response being measured. In the case of `COc1ccc(C(CC(=O)O)c2ncc(CCCCc3ccc4c(n3)NCCC4)n2C)cn1` (single isomer, unassigned) [Example 165, 3-(6-methoxypyridin-3-yl)-3-(1-methyl-5-(4-(5,6,7,8-tetrahydro-1,8-naphthyridin-2-yl)butyl)-1H-imidazol-2-yl)propanoic acid], the IC50 was determined as 27 nM.

Turning to `CN(C)C(=O)c1ccc(C(CC(=O)O)c2nc(CCCc3ccc4c(n3)NCCC4)cs2)cc1` (single isomer, unassigned) [Example 138, 3-(4-(dimethylcarbamoyl)phenyl)-3-(4-(3-(5,6,7,8-tetrahydro-1,8-naphthyridin-2-yl)propyl)thiazol-2-yl)propanoic acid], the IC50 was found to be 4 nM.

As to `CN(C)C(=O)c1cccc(C(CC(=O)O)c2nc(CCCc3ccc4c(n3)NCCC4)cs2)c1` (single isomer, unassigned) [Example 140, 3-(3-(dimethylcarbamoyl)phenyl)-3-(4-(3-(5,6,7,8-tetrahydro-1,8-naphthyridin-2-yl)propyl)thiazol-2-yl)propanoic acid], the IC50 was 3.7 nM.

Regarding `CN(C)C(=O)c1cncc(C(CC(=O)O)n2ccc(CCCc3ccc4c(n3)NCCC4)n2)c1` (racemic) [Example 74, (±)-3-[5-(dimethylcarbamoyl)pyridin-3-yl]-3-{3-[3-(5,6,7,8-tetrahydro-1,8-naphthyridin-2-yl)propyl]-1H-pyrazol-1-yl}propanoic acid], the IC50 worked out at 13 nM.

`COc1ccc(C(CC(=O)O)n2ncc(CCCc3ccc4c(n3)NCCC4)n2)cn1` (single isomer, unassigned) [Example 171, 3-(6-methoxypyridin-3-yl)-3-(4-(3-(5,6,7,8-tetrahydro-1,8-naphthyridin-2-yl)propyl)-2H-1,2,3-triazol-2-yl)propanoic acid]: the IC50 was determined as 27 nM.

With `Cc1ncc(C(CC(=O)O)n2ccc(CCCc3ccc4c(n3)NCCCC4)n2)cn1` (stereo not drawn) [Example 98, 3-(2-methylpyrimidin-5-yl)-3-(3-(3-(6,7,8,9-tetrahydro-5H-pyrido[2,3-b]azepin-2-yl)propyl)-1H-pyrazol-1-yl)propanoic acid], the IC50 amounted to 595 nM.

Take `O=C(O)C[C@@H](c1ccc(OCc2ccccc2)nc1)n1ccc(CCCc2ccc3c(n2)NCCC3)n1` [Example 110, (S)-3-(6-(benzyloxy)pyridin-3-yl)-3-(3-(3-(5,6,7,8-tetrahydro-1,8-naphthyridin-2-yl)propyl)-1H-pyrazol-1-yl)propanoic acid]: the IC50 amounted to 9.3 nM.

For `COc1ccc(C(CC(=O)O)c2nc(CCCC3CCc4cccnc4N3)cs2)cc1F` (single isomer, unassigned) [Example 159, 3-(3-fluoro-4-methoxyphenyl)-3-(4-(3-(1,2,3,4-tetrahydro-1,8-naphthyridin-2-yl)propyl)thiazol-2-yl)propanoic acid], the IC50 came to 370 nM.

In the case of `O=C(O)CC(c1cccc(N2CCOCC2)c1)c1nc(CCCCc2ccc3c(n2)NCCC3)cs1` (single isomer, unassigned) [Example 125, 3-(3-morpholinophenyl)-3-(4-(4-(5,6,7,8-tetrahydro-1,8-naphthyridin-2-yl)butyl)thiazol-2-yl)propanoic acid], the IC50 is 180 nM.

`O=C(O)C[C@H](c1cnc2c(c1)OCCO2)n1ccc(CCCc2ccc3c(n2)NCCC3)n1` [Example 52, (R)-3-(2,3-Dihydro-[1,4]dioxino[2,3-b]pyridin-7-yl)-3-(3-(3-(5,6,7,8-tetrahydro-1,8-naphthyridin-2-yl)propyl)-1H-pyrazol-1-yl)propanoic acid]: the IC50 is 730 nM.

As for `COc1ccc(C(CC(=O)O)c2ncc(CCCc3ccc4c(n3)NCCC4)s2)cc1F` (single isomer, unassigned) [Example 43, 3-(3-Fluoro-4-methoxyphenyl)-3-(5-(3-(5,6,7,8-tetrahydro-1,8-naphthyridin-2-yl)propyl)thiazol-2-yl)propanoic acid], the IC50 was 18 nM.

Take `Cc1cncc(C(CC(=O)O)n2ccc(CCCc3ccc4c(n3)NCCC4)n2)c1` (single isomer, unassigned) [Example 70, 3-(5-methylpyridin-3-yl)-3-{3-[3-(5,6,7,8-tetrahydro-1,8-naphthyridin-2-yl)propyl]-1H-pyrazol-1-yl}propanoic acid]: the IC50 came out at 4900 nM.

For the compound `COc1ccc(C(CC(=O)O)c2cnn(CCCc3ccc4c(n3)NCCC4)c2)cn1` (racemic) [Example 7, (±)-3-(6-Methoxypyridin-3-yl)-3-(1-(3-(5,6,7,8-tetrahydro-1,8-naphthyridin-2-yl)propyl)-1H-pyrazol-4-yl)propanoic acid], the IC50 came out at 323 nM.

Consider `COc1ccc(C(CC(=O)O)c2nc(CCCC3CCc4cccnc4N3)cs2)cn1` (single isomer, unassigned) [Example 155, 3-(6-methoxypyridin-3-yl)-3-(4-(3-(1,2,3,4-tetrahydro-1,8-naphthyridin-2-yl)propyl)thiazol-2-yl)propanoic acid], for which the IC50 is 8.1 nM.

As for `O=C(O)C[C@@H](c1ccc(O)nc1)n1ccc(CCCc2ccc3c(n2)NCCC3)n1` [Example 12, (S)-3-(6-Hydroxypyridin-3-yl)-3-(3-(3-(5,6,7,8-tetrahydro-1,8-naphthyridin-2-yl)propyl)-1H-pyrazol-1-yl)propanoic acid], the IC50 came out at 31 nM.

Take `COc1ccc(C(CC(=O)O)c2nc(CCCc3ccc4c(n3)NCCC4)cs2)cc1OC` (single isomer, unassigned) [Example 141, 3-(3,4-dimethoxyphenyl)-3-(4-(3-(5,6,7,8-tetrahydro-1,8-naphthyridin-2-yl)propyl)thiazol-2-yl)propanoic acid]: the IC50 is 2.9 nM.

Take `COc1ccc(C(CC(=O)O)c2ncc(CCCc3ccc4c(n3)NCCC4)s2)cn1` (single isomer, unassigned) [Example 20, 3-(6-Methoxypyridin-3-yl)-3-(5-(3-(5,6,7,8-tetrahydro-1,8-naphthyridin-2-yl)propyl)thiazol-2-yl)propanoic acid]: the IC50 is 18 nM.

For `CN(C)C(=O)c1ccc(C(CC(=O)O)c2nc(CCCCc3ccc4c(n3)NCCC4)cs2)cc1F` (single isomer, unassigned) [Example 132, 3-(4-(dimethylcarbamoyl)-3-fluorophenyl)-3-(4-(4-(5,6,7,8-tetrahydro-1,8-naphthyridin-2-yl)butyl)thiazol-2-yl)propanoic acid], the IC50 was found to be 81 nM.

For `Cc1ncc([C@H](CC(=O)O)n2ccc(CCC[C@@H]3CCc4cccnc4N3)n2)cn1` [Example 88, (S)-3-(2-methylpyrimidin-5-yl)-3-(3-(3-((R)-1,2,3,4-tetrahydro-1,8-naphthyridin-2-yl)propyl)-1H-pyrazol-1-yl)propanoic acid], the IC50 was 170 nM.

Take `COc1ccc(C(CC(=O)O)c2ncc(CCCCc3ccc4c(n3)NCCC4)n2C)cc1F` (single isomer, unassigned) [Example 167, 3-(3-fluoro-4-methoxyphenyl)-3-(1-methyl-5-(4-(5,6,7,8-tetrahydro-1,8-naphthyridin-2-yl)butyl)-1H-imidazol-2-yl)propanoic acid]: the IC50 is 27 nM.

Turning to `Cc1ncc(C(CC(=O)O)c2nc(CCCc3ccc4c(n3)NCCC4)cs2)cn1` (single isomer, unassigned) [Example 149, 3-(2-methylpyrimidin-5-yl)-3-(4-(3-(5,6,7,8-tetrahydro-1,8-naphthyridin-2-yl)propyl)thiazol-2-yl)propanoic acid], the IC50 stood at 7.2 nM.

Consider `COc1ccc(C(CC(=O)O)c2cnn(CCCCc3ccc4c(n3)NCCC4)c2)cc1F` (stereo not drawn) [Example 44, 3-(3-fluoro-4-methoxyphenyl)-3-(1-(4-(5,6,7,8-tetrahydro-1,8-naphthyridin-2-yl)butyl)-1H-pyrazol-4-yl)propanoic acid], for which the IC50 worked out at 64 nM.

For `COc1ccc(C(CC(=O)O)c2nc(CCCC3CCc4cccnc4N3)cs2)cc1F` (single isomer, unassigned) [Example 160, 3-(3-fluoro-4-methoxyphenyl)-3-(4-(3-(1,2,3,4-tetrahydro-1,8-naphthyridin-2-yl)propyl)thiazol-2-yl)propanoic acid], the IC50 was 195 nM.

Turning to `O=C(O)CC(c1cnc2ccccc2c1)n1ncc(CCCc2ccc3c(n2)NCCC3)n1` (single isomer, unassigned) [Example 175, 3-(quinolin-3-yl)-3-(4-(3-(5,6,7,8-tetrahydro-1,8-naphthyridin-2-yl)propyl)-2H-1,2,3-triazol-2-yl)propanoic acid], the IC50 is 4.3 nM.

For the compound `COc1ccc(C(CC(=O)O)n2cc(CCCCc3ccc4c(n3)NCCC4)cn2)cn1` (racemic) [Example 61, (±)-3-(6-Methoxypyridin-3-yl)-3-(4-(4-(5,6,7,8-tetrahydro-1,8-naphthyridin-2-yl)butyl)-1H-pyrazol-1-yl)propanoic acid], the IC50 turned out to be 56 nM.

Take `CN(C)c1ccc(C(CC(=O)O)c2nc(CCCc3ccc4c(n3)NCCC4)cs2)cn1` (single isomer, unassigned) [Example 134, 3-(6-(dimethylamino)pyridin-3-yl)-3-(4-(3-(5,6,7,8-tetrahydro-1,8-naphthyridin-2-yl)propyl)thiazol-2-yl)propanoic acid]: the IC50 is 1.8 nM.

With `O=C(O)C[C@@H](c1cnc(O)nc1)n1ccc(CCCc2ccc3c(n2)NCCC3)n1` [Example 85, (S)-3-(2-hydroxypyrimidin-5-yl)-3-(3-(3-(5,6,7,8-tetrahydro-1,8-naphthyridin-2-yl)propyl)-1H-pyrazol-1-yl)propanoic acid], the concentration for half-maximal inhibition (IC50) came out at 52 nM.
